From US11911394B2, “Compound and method for the prevention of transmission of influenza virus” (Hoffmann-La Roche Inc., priority 2019, dated 2024)

Tests used:
Format in all cases: in vivo
[1] = test system: Influenza A/Perth/265/2009 H1N1pdm09 virus; test: Example 2 ferret contact transmission study, quantitative real-time RT-PCR of nasal wash; settings: for donor viral copy numbers (qRT-PCR) compared to placebo: 3 DPI (p≤0.05), nasal wash; for recipients with influenza virus RNA detected (qRT-PCR) / ferrets with viral RNA detected (qRT-PCR), FIG. 13B recipient results: positive/total; for ferrets with viral RNA detected (qRT-PCR), FIG. 13B recipient results: Example 2 Experiment 3, printed as donors
Experimental: The active form baloxavir acid (S-033447, hereafter BXA) and pro-drug oseltamivir phosphate (hereafter OST) was kindly provided by Shionogi & Co., Ltd., Japan. The vehicle for BXA delivery was methyl cellulose (Sigma-Aldrich, Australia) in 0.5 w/v % aqueous solution prepared with sterile water (hereafter MC solution). BXA in suspension with MC solution (1 mg/mL) was prepared using an agate mortar and pestle, and was delivered to reversibly anaesthetised animals in a single treatment consisting of 4 subcutaneous injections at 4 locations on the dorsal region (total dose 4 mg/kg per animal). Animals in the placebo group were dosed identically using MC solution (1 mL/kg) alone. OST doses (10 mg/mL) were prepared in sugar solution (1 g/mL) and delivered bis in die (8 hr interval) to non-sedated ferrets by the oral route (total dose 10 mg/kg/day).
Viral RNA was extracted from 200 μL nasal wash samples using the NucleoMag VET isolation kit (Macherey Nagel) on the KingFisher Flex (ThermoFisher Scientific) platform according to manufacturer's instructions. Influenza virus M gene copy number in 4 μL RNA was determined by quantitative real-time RT-PCR performed using the SensiFAST Probe Lo-ROX One-Step qRT-PCR System Kit (Bioline) on the ABI 7500 Real Time PCR System (Applied Biosystems) under the following cycling conditions: 45° C. for 10 min, 1 cycle; 95° C. for 2 min, 1 cycle; 95° C. for 5 sec then 60° C. for 30 sec, 40 cycles. Sample RNA was quantitated using influenza A RNA standards of known copy number, kindly provided by Seqirus, Australia. Universal influenza A real-time primer/probe sets were kindly provided by CDC Influenza Branch (Atlanta, USA) (sequences available upon request). Results were analysed by 7500 Fast System SDS software v1.5.1.
Data analysis was performed using Graphpad Prism (GraphPad Software, v5.01). Nasal wash viral titres of all ferrets on each day post inoculation/exposure were compared by a matched two-way analysis of variance (ANOVA) followed by Tukey's multiple comparisons test. Quantitative real time RT-PCR was performed on influenza control RNA of known copy number to generate a standard curve (linear regression of influenza cycle threshold (Ct) values vs. copy number). Viral copy numbers present in nasal wash RNA samples on the same assay were calculated using the formula of the standard curve. Influenza A copy numbers for each group of ferrets were compared by a matched two-way ANOVA followed by Tukey's multiple comparisons test. p<0.05 was considered statistically significant.
This study consisted of three separate Experiments using different schedules of antiviral treatment and timing of naïve animal co-housing. In each experiment, twenty-four ferrets were randomly assigned to three groups (n=8): BXA, OST and placebo. Within each group, n=4 ferrets were designated as treated donor ferrets, and n=4 as naïve recipients. On 0 DPI (days post inoculation) for each experiment, all donor ferrets (each individually housed) were intranasally inoculated with influenza A/Perth/265/2009 at […] tissue culture infective doses (TCID50) in 40 μL of phosphate-buffered saline (PBS). As described above, donors in the BXA and placebo groups received a single antiviral treatment, whereas OST-group donors were treated daily until endpoint (excluding cull day). At the designated time point, naïve recipient ferrets were co-housed with treated donor ferrets (1:1 per cage) for a contact exposure period of 48 hr.
Experiment 1: Antiviral treatment for all donors commenced at 1 DPI, and naïve recipient ferrets were co-housed immediately following treatment. Body weight and temperature were monitored daily from all animals. Daily nasal wash samples were collected 1 mL of PBS from 1 DPI to 3 DPI for donor animals, and 1 day post exposure (DPE) to 10 DPE for recipient animals. Donors were sacrificed at 3 DPI (2 DPE), and blood was collected from BXA- and placebo-treated ferrets by cardiac puncture. […]

[2] = test system: influenza A virus A/England/195/2009; test: Example 1 ferret transmission study (direct contact and respiratory droplet), plaque assay of nasal wash; settings: for Donor ferrets positive for influenza as detected by the plaque assay: donor ferrets treated 24 h post infection; for Donor ferrets positive for influenza as detected by the plaque assay / Sentinel DC ferrets positive for influenza as detected by the plaque assay / Sentinel RD ferrets positive for influenza as detected by the plaque assay: positive/total; for respiratory droplet transmission: from treated donor ferrets to sentinels; for mean time to virus shedding, direct contact sentinels: sentinels exposed to treated donors, control 4.25 days; for Sentinel DC ferrets positive for influenza as detected by the plaque assay: untreated direct contact sentinels of treated donors; for mean time to virus shedding, respiratory droplet exposed sentinels: untreated donors 4.5 days, baloxavir value from the one infected sentinel; for Sentinel RD ferrets positive for influenza as detected by the plaque assay: untreated respiratory droplet sentinels of treated donors
[3] = test system: Influenza A/Perth/265/2009 H1N1pdm09 virus; test: Example 2 ferret contact transmission study, TCID50 assay of nasal wash; settings: for treated donors TCID50-positive (shedding detectable infectious virus) at donor endpoint: Example 2, all experiment schedules (Experiments 1-3); for recipient ferrets shedding detectable infectious virus (TCID50) following contact exposure to donor: donor treated 1 DPI; for recipient ferrets shedding detectable infectious virus (TCID50) following contact exposure to donor / donors shedding detectable infectious virus (TCID50) at 3 DPI endpoint / donors shedding detectable infectious virus (TCID50) at 4 DPI endpoint / ferrets shedding infectious virus (TCID50), FIG. 13A recipient results / donors shedding infectious virus (TCID50) at 4 DPI endpoint: positive/total; for donors shedding detectable infectious virus (TCID50) at 3 DPI endpoint / donors shedding detectable infectious virus (TCID50) at 4 DPI endpoint: treatment 1 DPI; for donor group titer (TCID50) compared to placebo group: baloxavir at 2 DPI (p≤0.05), 3 DPI and 4 DPI (p≤0.001), oseltamivir on 2-4 DPI; for ferrets shedding infectious virus (TCID50), FIG. 13A recipient results: donor treated 2 DPI, printed as donors at 4 DPI endpoint; for donors shedding infectious virus (TCID50) at 4 DPI endpoint: treatment 2 DPI; for effect of donor treatment on contact transmission to naïve ferrets: Example 2 Experiments 1-3
[4] = Example 2 Experiment 1, baloxavir at 2 DPI (p≤0.05) and 3 DPI (p≤0.001)
[5] = Example 2 Experiment 1, co-housing 1 DPI
[6] = Example 2 Experiment 2, co-housing 2 DPI
[7] = Example 2 Experiment 3, baloxavir at 3 and 4 DPI (p≤0.001), oseltamivir on 3 DPI (p≤0.05)
[8] = Example 2 Experiment 3, co-housing 2 DPI

Question: What does the source list for `CCOC(=O)C1=C[C@@H](OC(CC)CC)[C@H](NC(C)=O)[C@@H](N)C1` [oseltamivir, oseltamivir phosphate, reference compound]?
Answer: donor viral copy numbers (qRT-PCR) compared to placebo ([1]; Example 2 Experiment 1): significantly reduced; recipients with influenza virus RNA detected (qRT-PCR) ([1]; Example 2 Experiment 1): 4/4; recipients with influenza virus RNA detected (qRT-PCR) ([1]; Example 2 Experiment 2): 4/4; ferrets with viral RNA detected (qRT-PCR), FIG. 13B recipient results [1]: 4/4; Donor ferrets positive for influenza as detected by the plaque assay [2]: 4/4; respiratory droplet transmission [2]: 100%; mean time to virus shedding, direct contact sentinels [2]: 5.5 days; Sentinel DC ferrets positive for influenza as detected by the plaque assay [2]: 4/4; mean time to virus shedding, respiratory droplet exposed sentinels [2]: 9.3 days; Sentinel RD ferrets positive for influenza as detected by the plaque assay [2]: 3/4; treated donors TCID50-positive (shedding detectable infectious virus) at donor endpoint [3]: 4/4; recipients demonstrating evidence of infection by TCID50, qRT-PCR and serology ([3]; Example 2, all experimental conditions): 100%; donor group titer (TCID50) compared to placebo-group [3, 4]: no significant difference; recipient ferrets shedding detectable infectious virus (TCID50) following contact exposure to donor [3, 5]: 4/4; donors shedding detectable infectious virus (TCID50) at 3 DPI endpoint ([3]; Example 2 Experiment 1): 4/4; donor group titer (TCID50) compared to placebo group ([3]; Example 2 Experiment 2): no difference; recipient ferrets shedding detectable infectious virus (TCID50) following contact exposure to donor [3, 6]: 4/4; donors shedding detectable infectious virus (TCID50) at 4 DPI endpoint ([3]; Example 2 Experiment 2): 4/4; donor group titer (TCID50) compared to placebo-group [3, 7]: significantly lower; ferrets shedding infectious virus (TCID50), FIG. 13A recipient results [3, 8]: 4/4; donors shedding infectious virus (TCID50) at 4 DPI endpoint ([3]; Example 2 Experiment 3): 4/4; effect of donor treatment on contact transmission to naïve ferrets [3]: does not reduce

Question: How did the “donor viral copy numbers (qRT-PCR) compared to placebo” value ([1]; Example 2 Experiment 1) turn out when `O=C1c2c(O)c(=O)ccn2N([C@@H]2c3ccccc3SCc3c2ccc(F)c3F)[C@@H]2COCCN12` [baloxavir, baloxavir acid] was run?
Answer: Its value is “significantly reduced”.

Question: And the “recipients with influenza virus RNA detected (qRT-PCR)” value ([1]; Example 2 Experiment 1)?
Answer: Its value is 2/4.

Question: What about the “donor mean viral copy number (qRT-PCR)” value ([1]; Example 2 Experiment 2, 3 DPI, no differences at any other days) of the same compound?
Answer: Its value is “reduced”.

Question: And the “recipients with influenza virus RNA detected (qRT-PCR)” value ([1]; Example 2 Experiment 2)?
Answer: The value was 1/4.

Question: And the “ferrets with viral RNA detected (qRT-PCR), FIG. 13B recipient results” value [1]?
Answer: The value was 3/4.

Question: And the “Donor ferrets positive for influenza as detected by the plaque assay” value [2]?
Answer: Its value is 3/4.

Question: What about the respiratory droplet transmission [2] of the same compound?
Answer: The respiratory droplet transmission was 25%.

Question: And the “mean time to virus shedding, direct contact sentinels” value [2]?
Answer: Its value is 5.5 days.

Question: And the “Sentinel DC ferrets positive for influenza as detected by the plaque assay” value [2]?
Answer: Its value is 4/4.

Question: And the “mean time to virus shedding, respiratory droplet exposed sentinels” value [2]?
Answer: Its value is 8 days.

Question: And the “Sentinel RD ferrets positive for influenza as detected by the plaque assay” value [2]?
Answer: Its value is 1/4.

Question: What about the “treated donors TCID50-positive (shedding detectable infectious virus) at donor endpoint” value [3] of the same compound?
Answer: Its value is 0/4 and No.

Question: What about the “mean viral titres compared to the placebo-group” value ([3]; Example 2, 24 hours following treatment, all experiment conditions (p≤0.05)) of the same compound?
Answer: The value was “significantly reduced”.

Question: What about the “frequency of infectious viral shedding in recipients” value ([3]; Example 2, donor treatment at 1 DPI) of the same compound?
Answer: Its value is 25%.

Question: What about the “frequency of infectious viral shedding in recipients” value ([3]; Example 2, donor treatment at 2 DPI) of the same compound?
Answer: The value was 50%.

Question: What about the “infectious virus titers in the URT compared to both placebo and oseltamivir” value ([3]; Example 2, three independent experiments, single treatment of infected ferrets) of the same compound?
Answer: The value was “significantly reduced”.

Question: What about the reduction in transmission ([3]; Example 2, treatment 48 hr post infection) of the same compound?
Answer: Its reduction in transmission is 50%.

Question: And the reduction of transmission ([3]; Example 2, treatment within 24 hr of infection)?
Answer: Its reduction of transmission is 75%.

Question: What about the “donor group titer (TCID50) compared to placebo-group” value [3, 4] of the same compound?
Answer: The value was “significantly lower”.

Question: And the “recipient ferrets shedding detectable infectious virus (TCID50) following contact exposure to donor” value [3, 5]?
Answer: The value was 1/4.

Question: What about the “donors shedding detectable infectious virus (TCID50) at 3 DPI endpoint” value ([3]; Example 2 Experiment 1) of the same compound?
Answer: The value was 0/4.

Question: What about the “donor group titer (TCID50) compared to oseltamivir group” value ([3]; Example 2 Experiment 2, 3-4 DPI (p≤0.01)) of the same compound?
Answer: Its value is “significantly lower”.

Question: And the “donor group titer (TCID50) compared to placebo group” value ([3]; Example 2 Experiment 2)?
Answer: Its value is “significantly lower”.

Question: And the “recipient ferrets shedding detectable infectious virus (TCID50) following contact exposure to donor” value [3, 6]?
Answer: Its value is 1/4.

Question: What about the “donors shedding detectable infectious virus (TCID50) at 4 DPI endpoint” value ([3]; Example 2 Experiment 2) of the same compound?
Answer: The value was 0/4.

Question: And the “donor group titer (TCID50) compared to oseltamivir-group” value ([3]; Example 2 Experiment 3, 4 DPI (p≤0.001))?
Answer: Its value is “lower”.

Question: What about the “donor group titer (TCID50) compared to placebo-group” value [3, 7] of the same compound?
Answer: Its value is “significantly lower”.

Question: And the “ferrets shedding infectious virus (TCID50), FIG. 13A recipient results” value [3, 8]?
Answer: The value was 2/4.

Question: What about the “donors shedding infectious virus (TCID50) at 4 DPI endpoint” value ([3]; Example 2 Experiment 3) of the same compound?
Answer: The value was 0/4.

Question: And the “effect of donor treatment on contact transmission to naïve ferrets” value [3]?
Answer: Its value is “reduces”.
